Molecular target: T1, Rezeptorsubtyp M₁ (Rattus norvegicus, UniProt P08482)
T1 construct: HIPPOCAMPUS; from tissue; host or cells: hippocampus
T1 sequence (P08482 1-460): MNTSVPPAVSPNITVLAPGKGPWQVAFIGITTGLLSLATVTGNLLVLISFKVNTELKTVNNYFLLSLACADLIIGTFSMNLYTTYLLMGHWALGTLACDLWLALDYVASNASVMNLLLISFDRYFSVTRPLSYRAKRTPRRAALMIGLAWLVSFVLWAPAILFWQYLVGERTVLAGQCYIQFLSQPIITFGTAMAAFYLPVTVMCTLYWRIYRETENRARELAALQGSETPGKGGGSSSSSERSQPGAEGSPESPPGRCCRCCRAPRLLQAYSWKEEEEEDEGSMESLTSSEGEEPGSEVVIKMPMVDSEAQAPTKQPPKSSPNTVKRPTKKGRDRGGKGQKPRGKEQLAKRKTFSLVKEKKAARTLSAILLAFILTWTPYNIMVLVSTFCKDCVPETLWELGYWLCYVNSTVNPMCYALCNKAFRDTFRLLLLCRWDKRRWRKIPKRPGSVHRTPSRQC
Assay: Muscarinic receptor binding study, M₁ subtype, hippocampus, [³H]pirenzepine
Settings: Organ HIPPOCAMPUS, [³H]Ligand Pirenzepin, kind of constant not stated
Text: (§1) Die Rezeptorbindungsstudien im muskarinisch cholinergen System wurden an den drei Rezeptorsubtypen gemäß den untenstehenden Literaturzitaten ausgeführt (Watson, M., H. I. Yamamura and W.R. Roeske 1983, Life Sci. 32, 3001-3011; Hammer, R., C.P. Berrie, N.I.M. Birdsall, A.S.V. Burgen and E.C. Hulme 1980, Nature 283, 90-92; Hammer, R., E. Giraldo, G.B. Schiavi, E. Monferini and H. Ladinsky 1986, Life Sci. 38, 1653-1662;).

Row | SMILES | Rezeptorbindung
1 | CCN1CCc2c(oc(C)c2C)C1 [X=O, R₁=CH₃, R₂=CH₃, R₃=H, R₄=Et, R₅=H] | 3,2 µMol
2 | Cc1cc2c(o1)CN(C)CC2 [X=O, R₁=CH₃, R₂=H, R₃=H, R₄=CH₃, R₅=H, 2,6-Dimethyl-4,5,6,7-tetrahydrofuro[2,3-c]pyridin] | 8,3 µMol
3 | CCc1cc2c(o1)CN(C)CC2 [X=O, R₁=Et, R₂=H, R₃=H, R₄=CH₃, R₅=H, 2-Ethyl-6-methyl-4,5,6,7-tetrahydro-furo[2,3-c]pyridin] | 1,4 µMol
4 | CC(C)Cc1cc2c(o1)CN(C)CC2 [X=O, R₁=iso-Bu, R₂=H, R₃=H, R₄=CH₃, R₅=H, 6-Methyl-2-iso-butyl-4,5,6,7,-tetrahydro-furo[2.3-c]pyridin] | 0,8 µMol
5 | CCCCc1cc2c(o1)CN(C)CC2 [X=O, R₁=n-Bu, R₂=H, R₃=H, R₄=CH₃, R₅=H, 6-Methyl-2-n-butyl-4,5,6,7,-tetrahydro-furo[2.3-c]pyridin] | 0,5 µMol
6 | Cc1cc2c(s1)CN(C)CC2C (stereo not drawn) [X=S, R₁=CH₃, R₂=H, R₃=H, R₄=CH₃, R₅=CH₃, 2,4,6-Trimethyl-4,5,6,7-tetrahydrothieno[2,3-c]pyridin] | 5,8 µMol
7 | Cc1cc2c(s1)CN(C)CC2 [X=S, R₁=CH₃, R₂=H, R₃=H, R₄=CH₃, R₅=H, 2,6-Dimethyl-4,5,6,7-tetrahydrothieno[2,3-c]pyridin] | 7,5 µMol
8 | CCN1CCc2cc(C)sc2C1 [X=S, R₁=CH₃, R₂=H, R₃=H, R₄=Et, R₅=H, 6-Ethyl-2-methyl-4,5,6,7-tetrahydrothieno[2,3-c]pyridin] | 2,2 µMol
9 | Cc1cc2c(s1)CNCC2 [X=S, R₁=CH₃, R₂=H, R₃=H, R₄=H, R₅=H, 2-Methyl-4,5,6,7,-tetrahydro-thieno[2,3-c]pyridin] | 39,6 µMol
10 | CN1CCc2ccsc2C1 [X=S, R₁=H, R₂=H, R₃=H, R₄=CH₃, R₅=H, 6-Methyl-4,5,6,7,-tetrahydro-thieno[2,3-c]pyridin] | 36,3 µMol

Molecular target: T2, Rezeptorsubtyp M₂ (Rattus norvegicus, UniProt P10980)
T2 construct: Herz; from tissue; host or cells: heart
T2 sequence (P10980 1-466): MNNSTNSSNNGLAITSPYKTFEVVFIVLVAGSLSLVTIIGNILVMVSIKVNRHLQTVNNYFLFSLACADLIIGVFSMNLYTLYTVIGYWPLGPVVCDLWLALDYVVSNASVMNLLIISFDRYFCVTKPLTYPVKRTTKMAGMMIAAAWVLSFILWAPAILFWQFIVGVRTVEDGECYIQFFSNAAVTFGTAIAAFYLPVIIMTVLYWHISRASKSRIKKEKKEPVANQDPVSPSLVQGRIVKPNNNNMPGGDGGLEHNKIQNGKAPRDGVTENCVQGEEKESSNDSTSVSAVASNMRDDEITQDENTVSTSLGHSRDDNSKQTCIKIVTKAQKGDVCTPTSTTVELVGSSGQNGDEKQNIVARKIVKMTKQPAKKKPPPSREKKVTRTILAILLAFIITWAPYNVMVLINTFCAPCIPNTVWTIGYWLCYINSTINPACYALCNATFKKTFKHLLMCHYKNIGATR
Assay: Muscarinic receptor binding study, M₂ subtype, heart, [³H]N-methylscopolamine
Settings: Organ Herz, [³H]Ligand N-Methylscopolamin, kind of constant not stated
Text: as §1

Row | SMILES | Rezeptorbindung
11 | CCN1CCc2c(oc(C)c2C)C1 [X=O, R₁=CH₃, R₂=CH₃, R₃=H, R₄=Et, R₅=H] | 3,2 µMol
12 | Cc1cc2c(o1)CN(C)CC2 [X=O, R₁=CH₃, R₂=H, R₃=H, R₄=CH₃, R₅=H, 2,6-Dimethyl-4,5,6,7-tetrahydrofuro[2,3-c]pyridin] | 6,5 µMol
13 | CCc1cc2c(o1)CN(C)CC2 [X=O, R₁=Et, R₂=H, R₃=H, R₄=CH₃, R₅=H, 2-Ethyl-6-methyl-4,5,6,7-tetrahydro-furo[2,3-c]pyridin] | 1,0 µMol
14 | CC(C)Cc1cc2c(o1)CN(C)CC2 [X=O, R₁=iso-Bu, R₂=H, R₃=H, R₄=CH₃, R₅=H, 6-Methyl-2-iso-butyl-4,5,6,7,-tetrahydro-furo[2.3-c]pyridin] | 2,5 µMol
15 | CCCCc1cc2c(o1)CN(C)CC2 [X=O, R₁=n-Bu, R₂=H, R₃=H, R₄=CH₃, R₅=H, 6-Methyl-2-n-butyl-4,5,6,7,-tetrahydro-furo[2.3-c]pyridin] | 0,7 µMol
16 | Cc1cc2c(s1)CN(C)CC2C (stereo not drawn) [X=S, R₁=CH₃, R₂=H, R₃=H, R₄=CH₃, R₅=CH₃, 2,4,6-Trimethyl-4,5,6,7-tetrahydrothieno[2,3-c]pyridin] | 8,4 µMol
17 | Cc1cc2c(s1)CN(C)CC2 [X=S, R₁=CH₃, R₂=H, R₃=H, R₄=CH₃, R₅=H, 2,6-Dimethyl-4,5,6,7-tetrahydrothieno[2,3-c]pyridin] | 14 µmol
18 | CCN1CCc2cc(C)sc2C1 [X=S, R₁=CH₃, R₂=H, R₃=H, R₄=Et, R₅=H, 6-Ethyl-2-methyl-4,5,6,7-tetrahydrothieno[2,3-c]pyridin] | 4,5 µMol
19 | Cc1cc2c(s1)CNCC2 [X=S, R₁=CH₃, R₂=H, R₃=H, R₄=H, R₅=H, 2-Methyl-4,5,6,7,-tetrahydro-thieno[2,3-c]pyridin] | >100 µmol
20 | CN1CCc2ccsc2C1 [X=S, R₁=H, R₂=H, R₃=H, R₄=CH₃, R₅=H, 6-Methyl-4,5,6,7,-tetrahydro-thieno[2,3-c]pyridin] | >100 µmol

Molecular target: T3, Rezeptorsubtyp M₃ (Rattus norvegicus, UniProt P08483)
T3 construct: Tränendrüse; from tissue; host or cells: lacrimal gland
T3 sequence (P08483 whole entry): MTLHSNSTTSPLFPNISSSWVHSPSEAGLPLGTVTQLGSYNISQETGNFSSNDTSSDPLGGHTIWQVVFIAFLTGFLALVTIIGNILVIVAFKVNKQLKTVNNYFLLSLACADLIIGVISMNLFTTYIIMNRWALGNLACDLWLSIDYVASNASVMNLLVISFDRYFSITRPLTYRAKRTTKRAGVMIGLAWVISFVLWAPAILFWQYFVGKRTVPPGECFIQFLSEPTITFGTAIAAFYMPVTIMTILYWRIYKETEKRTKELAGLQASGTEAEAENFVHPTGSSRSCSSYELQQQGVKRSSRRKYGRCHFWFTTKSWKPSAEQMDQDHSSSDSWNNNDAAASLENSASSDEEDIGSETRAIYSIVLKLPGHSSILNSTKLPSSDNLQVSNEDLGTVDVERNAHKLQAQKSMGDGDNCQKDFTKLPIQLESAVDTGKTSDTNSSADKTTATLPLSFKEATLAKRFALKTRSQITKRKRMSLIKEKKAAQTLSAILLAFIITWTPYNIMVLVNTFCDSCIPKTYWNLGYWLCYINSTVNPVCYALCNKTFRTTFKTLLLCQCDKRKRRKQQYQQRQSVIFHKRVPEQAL
Assay: Muscarinic receptor binding study, M₃ subtype, lacrimal gland, [³H]N-methylscopolamine
Settings: Organ Tränendrüse, [³H]Ligand N-Methylscopolamin, kind of constant not stated
Text: as §1

Row | SMILES | Rezeptorbindung
21 | Cc1cc2c(o1)CN(C)CC2 [X=O, R₁=CH₃, R₂=H, R₃=H, R₄=CH₃, R₅=H, 2,6-Dimethyl-4,5,6,7-tetrahydrofuro[2,3-c]pyridin] | 24,2 µMol
22 | CC(C)Cc1cc2c(o1)CN(C)CC2 [X=O, R₁=iso-Bu, R₂=H, R₃=H, R₄=CH₃, R₅=H, 6-Methyl-2-iso-butyl-4,5,6,7,-tetrahydro-furo[2.3-c]pyridin] | 2,7 µMol
23 | Cc1cc2c(s1)CN(C)CC2C (stereo not drawn) [X=S, R₁=CH₃, R₂=H, R₃=H, R₄=CH₃, R₅=CH₃, 2,4,6-Trimethyl-4,5,6,7-tetrahydrothieno[2,3-c]pyridin] | 34,1 µMol
24 | Cc1cc2c(s1)CN(C)CC2 [X=S, R₁=CH₃, R₂=H, R₃=H, R₄=CH₃, R₅=H, 2,6-Dimethyl-4,5,6,7-tetrahydrothieno[2,3-c]pyridin] | 53,1 µMol
25 | CCN1CCc2cc(C)sc2C1 [X=S, R₁=CH₃, R₂=H, R₃=H, R₄=Et, R₅=H, 6-Ethyl-2-methyl-4,5,6,7-tetrahydrothieno[2,3-c]pyridin] | 11,4 µMol
26 | Cc1cc2c(s1)CNCC2 [X=S, R₁=CH₃, R₂=H, R₃=H, R₄=H, R₅=H, 2-Methyl-4,5,6,7,-tetrahydro-thieno[2,3-c]pyridin] | >100 µmol
27 | CN1CCc2ccsc2C1 [X=S, R₁=H, R₂=H, R₃=H, R₄=CH₃, R₅=H, 6-Methyl-4,5,6,7,-tetrahydro-thieno[2,3-c]pyridin] | >100 µmol

Molecular target: Agonisten Bindungsstelle
Assay: [³H]cis-methyldioxolane binding study (muscarinic agonist binding site)
Settings: [³H]Ligand cis-Methyldioxolan
Text: Die erfindungsgemäßen Verbindungen verdrängen den muscarinen Agonisten mit hoher Affinität von der Agonisten Bindungsstelle. Die Durchführung der [3H]cis-Methyldioxolan-Bindungsstudien erfolgen analog zu A Closs et al., Naunyn Schmiedebergs Arch. Pharmacol 335, 372-377 (1987). Die Ergebnisse sind in Tabelle Ia zusammengestellt Tabelle Ia: […]

Row | SMILES | Ki [nM]
28 | Cc1cc2c(o1)CN(C)CC2 [X=O, R₁=CH₃, R₂=H, R₃=H, R₄=CH₃, R₅=H, 2,6-Dimethyl-4,5,6,7-tetrahydrofuro[2,3-c]pyridin] | 81
29 | CCc1cc2c(o1)CN(C)CC2 [X=O, R₁=Et, R₂=H, R₃=H, R₄=CH₃, R₅=H, 2-Ethyl-6-methyl-4,5,6,7-tetrahydro-furo[2,3-c]pyridin] | 52
30 | CCCc1cc2c(o1)CN(C)CC2 [X=O, R₁=N-Pr, R₂=H, R₃=H, R₄=CH₃, R₅=H, 6-Methyl-2-n-propyl-4,5,6,7,-tetrahydro-furo[2.3-c]pyridin] | 53
31 | CCCCc1cc2c(o1)CN(C)CC2 [X=O, R₁=n-Bu, R₂=H, R₃=H, R₄=CH₃, R₅=H, 6-Methyl-2-n-butyl-4,5,6,7,-tetrahydro-furo[2.3-c]pyridin] | 39
32 | CCCc1cc2c(o1)CNCC2 [X=O, R₁=n-Pr, R₂=H, R₃=H, R₄=H, R₅=H] | 160

System: not listed separately
Assay: EEG of the awake rabbit (arousal reaction)
Format: in vivo
Settings: waches Kaninchen; 1 mg/kg i.v.
Text: Die erfindungsgemäßen tertiären Amine der allgemeinen Formel I zeigen Affinitäten zu muscarinen Rezeptoren im ZNS und im Tierexperiment muscarine agonistische Eigenschaften im ZNS.

Row | SMILES | Arousal-Reaktion im EEG
33 | Cc1cc2c(o1)CN(C)CC2 [X=O, R₁=CH₃, R₂=H, R₃=H, R₄=CH₃, R₅=H, 2,6-Dimethyl-4,5,6,7-tetrahydrofuro[2,3-c]pyridin] | eine für Cholinomimetica typische Arousal-Reaktion

Same assay, conditions: waches Kaninchen; 3 mg/kg p.o.

Row | SMILES | Arousal-Reaktion im EEG
34 | Cc1cc2c(o1)CN(C)CC2 [X=O, R₁=CH₃, R₂=H, R₃=H, R₄=CH₃, R₅=H, 2,6-Dimethyl-4,5,6,7-tetrahydrofuro[2,3-c]pyridin] | eine für Cholinomimetica typische Arousal-Reaktion

System: not listed separately
Assay: Haloperidol-induced dyskinesias in haloperidol-sensitised monkeys
Format: in vivo
Settings: gegen Haloperidol sensibilisierte Affen; Dosis < 1 mg/kg i.m

Row | SMILES | Dyskinesien zusammen mit unterschwelligen Dosen (Haloperidol) | durch Haloperidol hervorgerufene Dyskinesien
35 | Cc1cc2c(s1)CN(C)CC2 [X=S, R₁=CH₃, R₂=H, R₃=H, R₄=CH₃, R₅=H, 2,6-Dimethyl-4,5,6,7-tetrahydrothieno[2,3-c]pyridin] | lösen zusammen mit unterschwelligen Dosen Dyskinesien aus | verstärken
